Test system: L929 cells
Assay: Cytotoxicity test using L929 cells
Type: cell-based
Experimental: FIG. 1 is a graph showing the result of a cytotoxicity test on three compounds related to the synthesis of a citric acid derivative (CAD).
A cytotoxicity test was carried out in the following manner. As one example of the low-molecular-weight derivative serving as the hardening component, a biological low-molecular-weight derivative (CAD) was synthesized by modifying three carboxyl groups of a citric acid with N-hydroxysuccinimide (HOSu), and a cytotoxicity test was performed using L929 cells and the synthesized CAD. The number of cells in a sample added with no CAD was defined as 100%.

SMILES	cytotoxicity (number of cells; sample added with no CAD defined as 100%)
O=C(CC(O)(CC(=O)ON1C(=O)CCC1=O)C(=O)ON1C(=O)CCC1=O)ON1C(=O)CCC1=O [CAD]	extremely low toxicity
O=C1CCC(=O)N1O [HOSu, N-hydroxysuccinimide]	extremely low toxicity
O=C(O)CC(O)(CC(=O)O)C(=O)O [citric acid]	extremely low toxicity
